Assay results: ChEMBL document CHEMBL3797148, “Antiprotozoal activity of dehydroabietic acid derivatives against Leishmania donovani and Trypanosoma cruzi” (Medchemcomm, 2016)

What was measured:
Leishmania donovani [1] = experiment: Antileishmanial activity against axenic amastigote stage of Leishmania donovani MHOM/SD/1962/1S-Cl2d assessed as inhibition of parasite growth at 50 uM after 24 hrs by Alamar blue viability assay; format: functional; conditions: read-out: GI
L6 = experiment: Cytotoxicity against rat L6 cells after 72 hrs by Alamar blue assay; format: cell-based; conditions: L6, 72 h
Trypanosoma cruzi [2] = experiment: Antiparasitic activity against amastigote stage of Trypanosoma cruzi Tulahuen C2C4 expressing LacZ gene infected in rat L6 cells after 96 hrs by photometric analysis; format: functional, organism-based; conditions: Tulahuen C2C4, L6, 96 h
[3] = Selectivity index, ratio of IC50 for rat L6 cells to IC50 for amastigote stage of Trypanosoma cruzi Tulahuen C2C4 expressing LacZ gene infected in rat L6 cells; format: toxicity, cell-based; conditions: read-out: Ratio IC50
Leishmania donovani [4] = experiment: Antileishmanial activity against axenic amastigote stage of Leishmania donovani MHOM/SD/1962/1S-Cl2d assessed as inhibition of parasite growth at 15 uM after 24 hrs by Alamar blue viability assay; format: functional; conditions: read-out: GI
[5] = Selectivity index, ratio of IC50 for human THP-1 cells to IC50 for Leishmania donovani MHOM/SD/1962/1S-Cl2d axenic amastigotes; format: toxicity, cell-based; conditions: read-out: Ratio IC50
Leishmania donovani [6] = experiment: Antileishmanial activity against axenic amastigote stage of Leishmania donovani MHOM/SD/1962/1S-Cl2d assessed as inhibition of parasite growth after 24 hrs by Alamar blue viability assay; format: functional, organism-based
Leishmania donovani [7] = experiment: Antileishmanial activity against Leishmania donovani promastigotes infected in human THP1 cells assessed as inhibition of amastigote growth by luciferase assay; format: functional, organism-based; conditions: THP-1
Leishmania donovani [8] = experiment: Antileishmanial activity against axenic amastigote stage of Leishmania donovani MHOM/SD/1962/1S-Cl2d assessed as inhibition of parasite growth at 5 uM after 24 hrs by Alamar blue viability assay; format: functional; conditions: read-out: GI
[9] = Cytotoxicity against human THP1 cells after 24 hrs by Alamar blue viability assay; format: cell-based; conditions: THP-1, 24 h
Leishmania braziliensis = experiment: Antileishmanial activity against promastigote stage of Leishmania braziliensis MHOM/BR/75/M2904 after 72 hrs by Neubauer haemocytometric analysis; format: functional; conditions: MHOM/BR/75/M2904, 72 h
Leishmania infantum = experiment: Antileishmanial activity against promastigote stage of Leishmania infantum MCAN/ES/2001/UCM-10 after 72 hrs by Neubauer haemocytometric analysis; format: functional, organism-based; conditions: MCAN/ES/2001/UCM-10, 72 h
Trypanosoma cruzi [10] = experiment: Antiparasitic activity against epimastigote stage of Trypanosoma cruzi IRHOD/CO/2008/SN3 after 72 hrs by Neubauer haemocytometric analysis; format: functional, organism-based; conditions: IRHOD/CO/2008/SN3, 72 h
Trypanosoma cruzi [11] = experiment: Potency index of ratio of Benznidazole IC50 to compound IC50 for antiparasitic activity against amastigote stage of Trypanosoma cruzi Tulahuen C2C4; format: functional

COC(=O)[C@@H](Cc1c[nH]c2ccccc12)NC(=O)[C@]1(C)CCC[C@]2(C)c3ccc(C(C)C)cc3CC[C@@H]12
inhibition of growth at 50 µM (Leishmania donovani [1]): 46.9%

COC(=O)[C@H](CC(C)C)NC(=O)[C@]1(C)CCC[C@]2(C)c3ccc(C(C)C)cc3CC[C@@H]12
inhibition of growth at 50 µM (Leishmania donovani [1]): 64.9%

COC(=O)[C@@H](Cc1ccc[n+]([O-])c1)NC(=O)[C@]1(C)CCC[C@]2(C)c3ccc(C(C)C)cc3CC[C@@H]12
inhibition of growth at 50 µM (Leishmania donovani [1]): 27.1% | IC50 (L6): 85.9 µM | IC50 (Trypanosoma cruzi [2]): 32.7 µM | selectivity ratio [3]: 3

COC(=O)CNC(=O)[C@]1(C)CCC[C@]2(C)c3ccc(C(C)C)cc3CC[C@@H]12
inhibition of growth at 50 µM (Leishmania donovani [1]): 28.7%

CC(C)c1ccc2c(c1)CC[C@H]1[C@](C)(C(=O)N[C@H](Cc3ccc[n+]([O-])c3)C(=O)O)CCC[C@]21C
inhibition of growth at 50 µM (Leishmania donovani [1]): 1.9%

COC(=O)[C@H](Cc1ccccc1)NC(=O)[C@]1(C)CCC[C@]2(C)c3ccc(C(C)C)cc3CC[C@@H]12
inhibition of growth at 50 µM (Leishmania donovani [1]): 68.6%

CC(C)C[C@H](NC(=O)[C@]1(C)CCC[C@]2(C)c3ccc(C(C)C)cc3CC[C@@H]12)C(=O)O
inhibition of growth at 50 µM (Leishmania donovani [1]): 91.2% | inhibition of growth at 15 µM (Leishmania donovani [4]): 34.8%

CC(C)c1ccc2c(c1)CC[C@H]1[C@](C)(C(=O)O)CCC[C@]21C [DEHYDROABIETIC ACID]
inhibition of growth at 50 µM (Leishmania donovani [1]): 91.1% | inhibition of growth at 15 µM (Leishmania donovani [4]): 59.2% | IC50 (L6): 151 µM | IC50 (Trypanosoma cruzi [2]): 101 µM | selectivity ratio [3]: 1

COC(=O)[C@@H](Cc1ccccc1)NC(=O)[C@]1(C)CCC[C@]2(C)c3ccc(C(C)C)cc3CC[C@@H]12
inhibition of growth at 50 µM (Leishmania donovani [1]): 77.5% | inhibition of growth at 15 µM (Leishmania donovani [4]): 51.5%

COC(=O)[C@H](CC1CCCCC1)NC(=O)[C@]1(C)CCC[C@]2(C)c3ccc(C(C)C)cc3C(=O)C[C@@H]12
inhibition of growth at 50 µM (Leishmania donovani [1]): 90.2% | selectivity ratio [5]: 14 | inhibition of growth at 15 µM (Leishmania donovani [4]): 76.3% | IC50 (Leishmania donovani [6]): 4.6 µM | IC50 (Leishmania donovani [7]): 6.6 µM | inhibition of growth at 5 µM (Leishmania donovani [8]): 33.3% | IC50 [9]: 62.1 µM | IC50 (L6): 33.5 µM | IC50 (Trypanosoma cruzi [2]): 4.2 µM | selectivity ratio [3]: 8

CC(C)c1ccc2c(c1)/C(=N\O)C[C@H]1[C@](C)(C(=O)N[C@@H](CC3CCCCC3)C(=O)O)CCC[C@]21C
inhibition of growth at 50 µM (Leishmania donovani [1]): 97.7% | inhibition of growth at 15 µM (Leishmania donovani [4]): 52.3%

COC(=O)[C@H](CC1CCCCC1)NC(=O)[C@]1(C)CCC[C@]2(C)c3ccc(C(C)C)cc3CC[C@@H]12
inhibition of growth at 50 µM (Leishmania donovani [1]): 43.2%

COC(=O)[C@]1(C)CCC[C@]2(C)C3=C(CC[C@@H]12)C(=O)C(C(C)C)=CC3=O
IC50 (Leishmania braziliensis): 14.2 µM | IC50 (Leishmania infantum): 14.2 µM | IC50 (Trypanosoma cruzi [10]): 14.2 µM

CC(C)c1ccc2c(c1)CC[C@H]1[C@](C)(C(=O)N[C@@H](CC3CCCCC3)C(=O)O)CCC[C@]21C
inhibition of growth at 50 µM (Leishmania donovani [1]): 98.1% | selectivity ratio [5]: 24 | inhibition of growth at 15 µM (Leishmania donovani [4]): 92.2% | IC50 (Leishmania donovani [6]): 1.7 µM | IC50 (Leishmania donovani [7]): 5 µM | inhibition of growth at 5 µM (Leishmania donovani [8]): 63.6% | IC50 [9]: 40.5 µM | IC50 (L6): 29.1 µM | IC50 (Trypanosoma cruzi [2]): 22.8 µM | selectivity ratio [3]: 1

CC(C)c1ccc2c(c1)CC[C@H]1[C@](C)(C(=O)NCC(=O)O)CCC[C@]21C
inhibition of growth at 50 µM (Leishmania donovani [1]): 69.3%

CC(C)c1ccc2c(c1)CC[C@H]1[C@](C)(C(=O)N[C@H](Cc3ccc(O)cc3)C(=O)O)CCC[C@]21C
inhibition of growth at 50 µM (Leishmania donovani [1]): 96.1% | inhibition of growth at 15 µM (Leishmania donovani [4]): 9.8%

CC(C)c1ccc2c(c1)C(=O)C[C@H]1[C@](C)(C(=O)N[C@@H](CC3CCCCC3)C(=O)O)CCC[C@]21C
inhibition of growth at 50 µM (Leishmania donovani [1]): 99.1% | selectivity ratio [5]: 13 | inhibition of growth at 15 µM (Leishmania donovani [4]): 98.6% | IC50 (Leishmania donovani [6]): 4 µM | IC50 (Leishmania donovani [7]): 2.3 µM | inhibition of growth at 5 µM (Leishmania donovani [8]): 82.8% | IC50 [9]: 52 µM | IC50 (L6): 77.2 µM | IC50 (Trypanosoma cruzi [2]): 3.9 µM | selectivity ratio [3]: 20

COC(=O)[C@@H](NC(=O)[C@]1(C)CCC[C@]2(C)c3ccc(C(C)C)cc3CC[C@@H]12)C(C)C
inhibition of growth at 50 µM (Leishmania donovani [1]): 57.1%

COC(=O)[C@@H](Cc1ccc(O)cc1)NC(=O)[C@]1(C)CCC[C@]2(C)c3ccc(C(C)C)cc3CC[C@@H]12
inhibition of growth at 50 µM (Leishmania donovani [1]): 98.9% | selectivity ratio [5]: 2 | inhibition of growth at 15 µM (Leishmania donovani [4]): 94.7% | IC50 (Leishmania donovani [6]): 11.1 µM | inhibition of growth at 5 µM (Leishmania donovani [8]): 38.8% | IC50 [9]: 21.7 µM

CSCC[C@@H](NC(=O)[C@]1(C)CCC[C@]2(C)c3ccc(C(C)C)cc3CC[C@@H]12)C(=O)O
inhibition of growth at 50 µM (Leishmania donovani [1]): 98% | inhibition of growth at 15 µM (Leishmania donovani [4]): 47%

CC(C)c1ccc2c(c1)CC[C@H]1[C@](C)(C(N)=O)CCC[C@]21C
inhibition of growth at 50 µM (Leishmania donovani [1]): 55.2%

CC(C)c1ccc2c(c1)CC[C@H]1[C@](C)(C(=O)N[C@H](Cc3ccccc3)C(=O)O)CCC[C@]21C
inhibition of growth at 50 µM (Leishmania donovani [1]): 98.3% | selectivity ratio [5]: 8 | inhibition of growth at 15 µM (Leishmania donovani [4]): 96.8% | IC50 (Leishmania donovani [6]): 5.2 µM | inhibition of growth at 5 µM (Leishmania donovani [8]): 54.1% | IC50 [9]: 41.4 µM | IC50 (L6): 60.6 µM | IC50 (Trypanosoma cruzi [2]): 27.7 µM | selectivity ratio [3]: 2

COC(=O)[C@@H](Cc1cccnc1)NC(=O)[C@]1(C)CCC[C@]2(C)c3ccc(C(C)C)cc3CC[C@@H]12
Ratio IC50 (Trypanosoma cruzi [11]): 1.5 | inhibition of growth at 50 µM (Leishmania donovani [1]): 98.6% | inhibition of growth at 15 µM (Leishmania donovani [4]): 16.5% | IC50 (L6): 24.1 µM | IC50 (Trypanosoma cruzi [2]): 1.4 µM | selectivity ratio [3]: 17

CC(C)c1ccc2c(c1)CC[C@H]1[C@](C)(C(=O)N[C@@H](Cc3ccccc3)C(=O)O)CCC[C@]21C
inhibition of growth at 50 µM (Leishmania donovani [1]): 98.1% | selectivity ratio [5]: 33 | inhibition of growth at 15 µM (Leishmania donovani [4]): 77.6% | IC50 (Leishmania donovani [6]): 2.5 µM | IC50 (Leishmania donovani [7]): 9 µM | inhibition of growth at 5 µM (Leishmania donovani [8]): 53.1% | IC50 [9]: 82.2 µM | IC50 (L6): 45.4 µM | IC50 (Trypanosoma cruzi [2]): 33.1 µM | selectivity ratio [3]: 1

CC(C)c1ccc2c(c1)CC[C@H]1[C@](C)(C(=O)N[C@H](Cc3c[nH]c4ccccc34)C(=O)O)CCC[C@]21C
inhibition of growth at 50 µM (Leishmania donovani [1]): 98.3% | inhibition of growth at 15 µM (Leishmania donovani [4]): 53.9%

COC(=O)[C@H](CC1CCCCC1)NC(=O)[C@]1(C)CCC[C@]2(C)c3ccc(C(C)C)cc3/C(=N\O)C[C@@H]12
inhibition of growth at 50 µM (Leishmania donovani [1]): 90.8% | selectivity ratio [5]: 7 | inhibition of growth at 15 µM (Leishmania donovani [4]): 85.8% | IC50 (Leishmania donovani [6]): 5.6 µM | inhibition of growth at 5 µM (Leishmania donovani [8]): 52.9% | IC50 [9]: 37.2 µM | IC50 (L6): 13.5 µM | IC50 (Trypanosoma cruzi [2]): 5.8 µM | selectivity ratio [3]: 2

COC(=O)CNC(=O)[C@]1(C)CCC[C@]2(C)c3ccc(C(C)C)cc3C(=O)C[C@@H]12
inhibition of growth at 50 µM (Leishmania donovani [1]): 37.1%

CC(C)c1ccc2c(c1)CC[C@H]1[C@](C)(C(=O)N[C@H](Cc3cccnc3)C(=O)O)CCC[C@]21C
inhibition of growth at 50 µM (Leishmania donovani [1]): 9.8% | IC50 (L6): 174 µM | IC50 (Trypanosoma cruzi [2]): 83.1 µM | selectivity ratio [3]: 2

CC[C@H](NC(=O)[C@]1(C)CCC[C@]2(C)c3ccc(C(C)C)cc3CC[C@@H]12)C(=O)OC
inhibition of growth at 50 µM (Leishmania donovani [1]): 57.6%

COC(=O)[C@@H](CCSC)NC(=O)[C@]1(C)CCC[C@]2(C)c3ccc(C(C)C)cc3CC[C@@H]12
inhibition of growth at 50 µM (Leishmania donovani [1]): 88.7% | inhibition of growth at 15 µM (Leishmania donovani [4]): 50.8%

CC[C@H](NC(=O)[C@]1(C)CCC[C@]2(C)c3ccc(C(C)C)cc3CC[C@@H]12)C(=O)O
inhibition of growth at 50 µM (Leishmania donovani [1]): 85% | inhibition of growth at 15 µM (Leishmania donovani [4]): 5.9%

CC(C)c1ccc2c(c1)CC[C@H]1[C@](C)(C(=O)N[C@H](C(=O)O)C(C)C)CCC[C@]21C
inhibition of growth at 50 µM (Leishmania donovani [1]): 90.6% | inhibition of growth at 15 µM (Leishmania donovani [4]): 10.9%
